Assay results from patent US8586322B2, “Sandwich assay for immunosuppressant drugs” (Siemens Healthcare Diagnostics, Inc, priority 2012, dated 2013).

How the values were obtained:
[1] = test system: monoclonal antibody 14H04; assay: ACMIA cross-reactivity / binding of tacrolimus derivatives to monoclonal antibody 14H04; set-up: species or system mouse; settings: ACMIA format
Protocol: The monoclonal antibody for region 14 may be identified by a screening method as follows: The binding region of an antibody clone was identified based on its binding properties to different tacrolimus derivatives such as metabolites and immunogens.
Measurements of tacrolimus derivatives by the ACMIA assay format were carried out according to the following procedure. Metabolites were obtained from Isotechnika Pharma Inc (Alberta, Canada) and Dr. Christistians Laboratory at University of Colorado in Denver, Colo. The tacrolimus derivative compounds such as immunogens were obtained from Siemens AG (Glasgow, Del.). The metabolite and immunogen cross-reactivity was measured using the ACMIA methodology described in U.S. Pat. No. 7,186,518, the relevant disclosure of which is incorporated herein by reference. Briefly, both clones were conjugated to β-galactosidase using a standard heterobifunctional SMCC (succinimidyl trans-4-(N-maleimidylmethyl)cyclohexane-1-carboxylate) linker according to known techniques. […] The cross reactivity was detected by testing the samples containing spiked metabolites and other tacrolimus derivatives such as the immunogens. […] Cross-reactivity was determined by dividing the apparent tacrolimus concentration by the concentration of added metabolite and expressing the result as a percentage.

[2] = test system: monoclonal antibody 1E2; assay: ACMIA cross-reactivity / binding of tacrolimus derivatives to monoclonal antibody 1E2; set-up: species or system mouse; settings: ACMIA format, 1E2-β-galactosidase conjugate, tacrolimus C32 fluorescein derivative chrome particles
Protocol: The monoclonal antibody for region 12 may be identified by the following screening method. […] Modification of the hydroxyl group linked to C24 weakened the binding of monoclonal antibody 1E2 to tacrolimus.
Measurements of tacrolimus derivatives by the ACMIA assay format were carried out according to the following procedure. Metabolites were obtained from Isotechnika Pharma Inc (Alberta, Canada) and Dr. Christistians Laboratory at University of Colorado in Denver, Colo. The tacrolimus derivative compounds such as immunogens were obtained from Siemens AG (Glasgow, Del.). The metabolite and immunogen cross-reactivity was measured using the ACMIA methodology described in U.S. Pat. No. 7,186,518, the relevant disclosure of which is incorporated herein by reference. Briefly, both clones were conjugated to β-galactosidase using a standard heterobifunctional SMCC (succinimidyl trans-4-(N-maleimidylmethyl)cyclohexane-1-carboxylate) linker according to known techniques. Chrome particles (immunoassay solid phase) were prepared by conjugating tacrolimus analogs to bovine immunoglobulin and then to polyaldehyde dextran coated chromium dioxide particles. The tacrolimus analog used for monoclonal antibody 14H04 was a tacrolimus C22 oxime compound. The analog used for monoclonal antibody 1E2 was a tacrolimus C32 fluorescein derivative immobilized on anti-fluorescein antibody coated chromium dioxide particles. The cross reactivity was detected by testing the samples containing spiked metabolites and other tacrolimus derivatives such as the immunogens. The assay signals obtained from the samples containing the spiked metabolites were compared to the signals obtained from the samples containing tacrolimus standards. Cross-reactivity was determined by dividing the apparent tacrolimus concentration by the concentration of added metabolite and expressing the result as a percentage.

SMILES	cross-reactivity with monoclonal antibody 14H04 ([1]; spiked metabolite compared with tacrolimus standards)	binding to monoclonal antibody 1E2 [2]	binding to monoclonal antibody 14H04 ([1]; 14H04-β-galactosidase conjugate, tacrolimus C22 oxime chrome particles)
C=CCC1C=C(C)CC(C)CC(OC)C2OC(O)(C(=O)C(=O)N3CCCCC3C(=O)OC(C(C)=CC3CCC(O)C(O)C3)C(C)C(O)CC1=O)C(C)CC2OC (stereo not drawn) [31-O-desmethyl, 31-O-desmethyl Tacrolimus]		does not decrease binding	
C=CCC1C=C(C)CC(C)CC(OC)C2OC(O)(C(=O)C(=O)N3CCCCC3C(=O)OC(C(C)=CC3CCC(O)C(OC)C3)C(C)C(O)CC1=NO)C(C)CC2OC (stereo not drawn) [tacrolimus C22 oxime]		does not bind	strong binding

Continued, values first:

cross-reactivity with monoclonal antibody 14H04 ([1]; spiked metabolite compared with tacrolimus standards)	binding to monoclonal antibody 1E2 [2]	binding to monoclonal antibody 14H04 ([1]; 14H04-β-galactosidase conjugate, tacrolimus C22 oxime chrome particles)	SMILES
no cross-reactivity			C=CCC1C=C(C)CC(C)CC(O)C2OC(O)(C(=O)C(=O)N3CCCCC3C(=O)OC(C(C)=CC3CCC(O)C(OC)C3)C(C)C(O)CC1=O)C(C)CC2OC (stereo not drawn) [15-O-demethyl tacrolimus, 15-O-desmethyl-tacrolimus]
	removed the binding		C=CCC1C=C(C)CC(C)CC(OC)C2OC(O)(C(=O)C(=O)N3CCCCC3C(=O)OC(C(C)=CC3CCC(O)C(OC)C3)C(C)C(O)CC1=O)C(C)CC2O (stereo not drawn) [M1, 13-O-desmethyl-tacrolimus]
	removed the binding		C=CCC1C=C(C)CC(C)CC(OC)C2OC(O)(C(=O)C(=O)N3CCCCC3C(=O)OC(C(C)=CC3CCC(O)C(O)C3)C(C)C(O)CC1=O)C(C)CC2O (stereo not drawn) [MVI, 13,31-O-didesmethyl-tacrolimus]
